# Measurements published in ChEMBL document CHEMBL6182867, “Discovery of ultra short β-peptoids with selective activity against drug-resistant Mycobacterium tuberculosis” (Eur J Med Chem, 2025).
# The source made the active and inactive calls. No cut-off for these calls is given here.
# Assays:
# [1] = system: Mycobacterium tuberculosis; test: Antitubercular activity against Mycobacterium tuberculosis H37Rv ATCC 27294 by microplate alamar blue assay; type: functional
# [2] = system: Mycobacterium tuberculosis; test: Antitubercular activity against Mycobacterium tuberculosis KMA 4244 by microplate alamar blue assay; type: functional
# [3] = system: Mycobacterium tuberculosis; test: Antitubercular activity against Mycobacterium tuberculosis KMA 3899 by microplate alamar blue assay; type: functional
# [4] = system: Mycobacterium tuberculosis; test: Antitubercular activity against Mycobacterium tuberculosis KMA 1354 by microplate alamar blue assay; type: functional
# [5] = system: Mycobacterium tuberculosis; test: Antitubercular activity against Mycobacterium tuberculosis KMA 5282 by microplate alamar blue assay; type: functional
# [6] = system: Mycobacterium tuberculosis; test: Antitubercular activity against Mycobacterium tuberculosis H37Rv by microplate alamar blue assay; type: functional
# [7] = system: Mycobacterium tuberculosis; test: Antitubercular activity against Mycobacterium tuberculosis KMA 4439 by microplate alamar blue assay; type: functional
# Candida albicans = test: Antifungal activity against Candida albicans by microplate alamar blue assay; type: functional
# [8] = Cytotoxicity against African green monkey Vero cells measured after 3 days by resazurin dye based fluorescence assay; type: toxicity, cell-based; conditions: African green monkey (Chlorocebus sabaeus)
# [9] = system: Mycobacteroides abscessus; test: Antibacterial activity against Mycobacterium abscessus ATCC 19977 incubated for 3 days by microplate alamar blue assay; type: functional; conditions: ATCC 19977, 72 h, time 3 day
# [10] = system: Mycobacterium tuberculosis; test: Bactericidal activity against Mycobacterium tuberculosis H37Rv measured up to 7 days by luminescence assay; type: functional; conditions: time <= 7 day
# Mycobacterium kansasii = test: Antibacterial activity against Mycobacterium kansasii ATCC 12478 incubated for 7 days by microplate alamar blue assay; type: functional; conditions: ATCC 12478, 168 h, time 7 day
# Mycobacterium avium = test: Antibacterial activity against Mycobacterium avium ATCC 15769 incubated for 6 days by microplate alamar blue assay; type: functional; conditions: ATCC 15769, 144 h, time 6 day
# Mycobacterium marinum = test: Antibacterial activity against Mycobacterium marinum ATCC 927 incubated for 5 days by microplate alamar blue assay; type: functional; conditions: ATCC 927, 120 h, time 5 day
# Mycobacteroides chelonae = test: Antibacterial activity against Mycobacteroides chelonae ATCC 35752 incubated for 3 days by microplate alamar blue assay; type: functional; conditions: ATCC 35752, 72 h, time 3 day
# Mitochondrial membrane [11] = test: Induction of […] membrane potential loss in Mycobacterium tuberculosis H37Rv at <=MIC measured after 15 mins by DiOC2 dye based fluorescence assay; type: cell membranes
# Mitochondrial membrane [12] = test: Induction of […] membrane potential loss in Mycobacterium tuberculosis H37Rv at <=MIC measured after 24 hrs by DiOC2 dye based fluorescence assay; type: cell membranes
# Klebsiella pneumoniae = test: Antibacterial activity against Klebsiella pneumoniae by microplate alamar blue assay; type: functional
# Enterococcus faecium = test: Antibacterial activity against Enterococcus faecium by microplate alamar blue assay; type: functional
# Klebsiella aerogenes = test: Antibacterial activity against Enterobacter aerogenes by microplate alamar blue assay; type: functional
# Pseudomonas aeruginosa = test: Antibacterial activity against Pseudomonas aeruginosa by microplate alamar blue assay; type: functional
# Staphylococcus aureus = test: Antibacterial activity against Staphylococcus aureus by microplate alamar blue assay; type: functional
# Acinetobacter baumannii = test: Antibacterial activity against Acinetobacter baumannii by microplate alamar blue assay; type: functional
# [13] = system: Mycobacterium tuberculosis; test: Antitubercular activity against Mycobacterium tuberculosis H37Rv assessed as post antibiotic affect by measuring time required for 1 log10 increase in RLU at 0.5 uM measured daily for up to 14 days by luminescence assay; type: functional; conditions: time <= 14 day
# [14] = system: Mycobacterium tuberculosis; test: Antitubercular activity against Mycobacterium tuberculosis H37Rv assessed as post antibiotic affect by measuring time required for 1 log10 increase in RLU at 0.05 uM measured daily for up to 14 days by luminescence assay; type: functional; conditions: time <= 14 day
# [15] = system: Mycobacterium tuberculosis; test: Antitubercular activity against Mycobacterium tuberculosis H37Rv assessed as post antibiotic affect by measuring time required for 1 log10 increase in RLU at 5 uM measured daily for up to 14 days by luminescence assay; type: functional; conditions: time <= 14 day
compound,measurement,setting,value
COCCN(CCOC)C(=O)CCNCCC(c1ccccc1)c1ccccc1,MIC90,[1],8.9 µg/mL
CC(C)N(C(=O)CNCc1cccc2ccccc12)C(C)C,MIC90,[2],95.5 µg/mL
same,MIC90,[3],49.9 µg/mL
same,MIC90,[4],85 µg/mL
same,MIC90,[5],93.6 µg/mL
same,MIC90,[6],88.8 µg/mL
same,MIC90,[1],43.3 µg/mL
same,MIC90,[7],95.2 µg/mL
O=C(CCNCc1cccc2ccccc12)NCCC(c1ccccc1)c1ccccc1,MIC90,[1],43.8 µg/mL
CCN(CC)C(=O)CCNCCC1CCCCCCC1,MIC90,[1],12.2 µg/mL
COCCN(CCOC)C(=O)CCNC(=O)CCNCc1cccc2ccccc12,MIC90,[1],3.87 µg/mL
CC(C)N(C(=O)CCN(CC(c1ccccc1)c1ccccc1)C(=O)CCNCC1CCCO1)C(C)C (stereo not drawn),MIC90,[1],24.2 µg/mL
CCN(CC)C(=O)CN(Cc1cccc2ccccc12)C(=O)CNCCC(c1ccccc1)c1ccccc1,MIC90,[1],4.84 µg/mL
O=C(CNCc1cccc2ccccc12)NCCC(c1ccccc1)c1ccccc1,MIC90,[1],7.25 µg/mL
O=C(CCNCCC(c1ccccc1)c1ccccc1)N1CCCC1,MIC90,[1],23.5 µg/mL
O=C(CNCCC(c1ccccc1)c1ccccc1)N1CCCC1,MIC90,[1],11.6 µg/mL
COCCN(CCOC)C(=O)CCN(CC1CCCO1)C(=O)CCNCC(c1ccccc1)c1ccccc1 (stereo not drawn),MIC90,[1],6.22 µg/mL
CC(C)N(C(=O)CCNCc1cccs1)C(C)C,MIC90,[1],43.8 µg/mL
CC(C)N(C(=O)CNCCC(c1ccccc1)c1ccccc1)C(C)C,MIC90,[1],9.55 µg/mL
O=C(CCNCC1CCCO1)N1CCCC1 (stereo not drawn),MIC90,[1],> 100 µg/mL
CC(C)N(C(=O)CN(Cc1cccc2ccccc12)C(=O)CNCc1cccs1)C(C)C,MIC90,[1],11.6 µg/mL
CC(C)N(C(=O)CNCC(c1ccccc1)c1ccccc1)C(C)C,MIC90,[1],20.4 µg/mL
CC(C)N(C(=O)CN(CC(c1ccccc1)c1ccccc1)C(=O)CNCC1CCCO1)C(C)C (stereo not drawn),MIC90,[1],24.4 µg/mL
COCCN(CCOC)C(=O)CCNCC1CCCO1 (stereo not drawn),MIC90,[1],92.8 µg/mL
O=C(CCNCC1CCCO1)NCc1cccc2ccccc12 (stereo not drawn),MIC90,[1],87.2 µg/mL
CC(C)N(C(=O)CCNCC(c1ccccc1)c1ccccc1)C(C)C,MIC90,[1],10.2 µg/mL
C[C@@H]1[C@H](O)[C@@H](C)/C=C/C=C/C=C/C=C/C=C/C=C/C=C/[C@H](O[C@@H]2O[C@H](C)[C@@H](O)[C@H](N)[C@@H]2O)C[C@@H]2O[C@](O)(C[C@@H](O)C[C@@H](O)[C@H](O)CC[C@@H](O)C[C@@H](O)CC(=O)O[C@H]1C)C[C@H](O)[C@H]2C(=O)O [AMPHOTERICIN B],MIC90,Candida albicans,< 0.195 µM
COc1nc2ccc(Br)cc2cc1[C@@H](c1ccccc1)[C@@](O)(CCN(C)C)c1cccc2ccccc12 [BEDAQUILINE],MIC90,[2],0.24 µM
same,MIC90,[3],0.12 µM
same,MIC90,[4],0.24 µM
same,IC50 at 3 days,[8],51.4 µM
same,MIC90,[5],0.24 µM
same,MIC90,[6],0.12 µM
same,MIC90,[9],0.49 µM
same,MIC90,[1],0.01 µM
same,MBC99,[10],150 µg/mL
same,MIC90,Mycobacterium kansasii,0.45 µM
same,MIC90,Mycobacterium avium,0.44 µM
same,MIC90,Mycobacterium marinum,0.45 µM
same,MIC90,[7],0.24 µM
same,MIC90,Mycobacteroides chelonae,0.48 µM
N#CC(C#N)=NNc1cccc(Cl)c1 [CARBONYL CYANIDE M-CHLOROPHENYLHYDRAZONE],IC50 at 3 days,[8],10.8 µM
same,Activity,Mitochondrial membrane [11],inactive
same,Activity,Mitochondrial membrane [12],Active
CC[C@H]1OC(=O)[C@H](C)[C@@H](O[C@H]2C[C@@](C)(OC)[C@@H](O)[C@H](C)O2)[C@H](C)[C@@H](O[C@@H]2O[C@H](C)C[C@H](N(C)C)[C@H]2O)[C@](C)(OC)C[C@@H](C)C(=O)[C@H](C)[C@@H](O)[C@]1(C)O [CLARITHROMYCIN],MIC90,[9],> 10 µM
same,MIC90,Mycobacterium kansasii,2.3 µM
same,MIC90,Mycobacterium avium,2.35 µM
same,MIC90,Mycobacterium marinum,4.72 µM
same,MIC90,Mycobacteroides chelonae,0.15 µM
CC(C)/N=c1\cc2n(-c3ccc(Cl)cc3)c3ccccc3nc-2cc1Nc1ccc(Cl)cc1 [CLOFAZIMINE],MIC90,[9],10.7 µM
same,MIC90,Mycobacterium kansasii,5.68 µM
same,MIC90,Mycobacterium avium,5.78 µM
same,MIC90,Mycobacterium marinum,9.92 µM
same,MIC90,Mycobacteroides chelonae,5.89 µM
C[C@H]1c2cccc(O)c2C(=O)C2=C(O)[C@]3(O)C(=O)C(C(N)=O)=C(O)[C@@H](N(C)C)[C@@H]3[C@@H](O)[C@@H]21 [DOXYCYCLINE ANHYDROUS],MIC90,Klebsiella pneumoniae,0.34 µM
same,MIC90,Enterococcus faecium,< 0.195 µM
same,MIC90,Klebsiella aerogenes,2.84 µM
same,MIC90,Pseudomonas aeruginosa,5.49 µM
same,MIC90,Staphylococcus aureus,< 0.195 µM
same,MIC90,Acinetobacter baumannii,< 0.195 µM
NNC(=O)c1ccncc1 [ISONIAZID],MIC90,[2],1.55 µM
same,MIC90,[3],0.43 µM
same,MIC90,[4],0.46 µM
same,MIC90,[5],0.98 µM
same,MIC90,[6],0.31 µM
same,MIC90,[9],> 8 µM
same,MIC90,[1],0.46 µM
same,MBC99,[10],250 µg/mL
same,MIC90,Mycobacterium kansasii,> 8 µM
same,MIC90,Mycobacterium avium,> 8 µM
same,MIC90,Mycobacterium marinum,> 8 µM
same,MIC90,[7],0.41 µM
same,MIC90,Mycobacteroides chelonae,> 8 µM
CC(=O)NC[C@H]1CN(c2ccc(N3CCOCC3)c(F)c2)C(=O)O1 [LINEZOLID],MIC90,[2],1 µM
same,MIC90,[3],0.48 µM
same,MIC90,[4],0.91 µM
same,MIC90,[5],1.89 µM
same,MIC90,[6],0.97 µM
same,MIC90,[9],88 µM
same,MIC90,[1],0.93 µM
same,MBC99,[10],7310 µg/mL
same,MIC90,Mycobacterium kansasii,85.6 µM
same,MIC90,Mycobacterium avium,93.5 µM
same,MIC90,Mycobacterium marinum,17.4 µM
same,MIC90,[7],0.95 µM
same,MIC90,Mycobacteroides chelonae,5.13 µM
COc1c(N2C[C@@H]3CCCN[C@@H]3C2)c(F)cc2c(=O)c(C(=O)O)cn(C3CC3)c12 [MOXIFLOXACIN],MIC90,[2],0.42 µM
same,MIC90,[3],0.11 µM
same,MIC90,[4],0.12 µM
same,IC50 at 3 days,[8],> 100 µM
same,MIC90,[5],0.48 µM
same,MIC90,[6],0.29 µM
same,MIC90,[1],0.19 µM
same,MBC99,[10],470 µg/mL
same,MIC90,Klebsiella pneumoniae,< 0.195 µM
same,MIC90,Enterococcus faecium,1.58 µM
same,MIC90,Klebsiella aerogenes,< 0.195 µM
same,MIC90,Pseudomonas aeruginosa,0.75 µM
same,MIC90,[7],0.33 µM
same,MIC90,Staphylococcus aureus,< 0.195 µM
same,MIC90,Acinetobacter baumannii,< 0.195 µM
O=[N+]([O-])c1cn2c(n1)OC[C@@H](OCc1ccc(OC(F)(F)F)cc1)C2 [PRETOMANID],MIC90,[1],0.1 µM
same,MBC99,[10],480 µg/mL
NC(=O)c1cnccn1 [PYRAZINAMIDE],MIC90,[2],1.51 µM
same,MIC90,[3],0.24 µM
same,MIC90,[4],0.25 µM
same,MIC90,[5],0.92 µM
same,MIC90,[6],0.43 µM
same,MIC90,[7],0.49 µM
CO[C@H]1/C=C/O[C@@]2(C)Oc3c(C)c(O)c4c(O)c(c(/C=N/N5CCN(C)CC5)c(O)c4c3C2=O)NC(=O)/C(C)=C\C=C\[C@H](C)[C@H](O)[C@@H](C)[C@@H](O)[C@@H](C)[C@H](OC(C)=O)[C@@H]1C [RIFAMPIN],MIC90,[2],0.11 µM
same,MIC90,[3],0.04 µM
same,MIC90,[4],0.05 µM
same,PAE,[13],~60 h
same,IC50 at 3 days,[8],> 95.7 µM
same,MIC90,[5],0.14 µM
same,MIC90,[6],0.06 µM
same,MIC90,[9],> 10 µM
same,MIC90,[1],0.02 µM
same,MBC99,[10],70 µg/mL
same,MIC90,Mycobacterium kansasii,2.36 µM
same,MIC90,Mycobacterium avium,3.05 µM
same,MIC90,Mycobacterium marinum,2.23 µM
same,PAE,[14],~24 h
same,MIC90,[7],0.22 µM
same,PAE,[15],~60 h
same,MIC90,Mycobacteroides chelonae,6.93 µM
Nc1c2c(nc3ccccc13)CCCC2 [TACRINE],IC50 at 3 days,[8],90.7 µM
CC/C(=C(\c1ccccc1)c1ccc(OCCN(C)C)cc1)c1ccccc1 [TAMOXIFEN],IC50 at 3 days,[8],13.9 µM
